The text below walks through data of patent publication US8604046B2, “Substituted piperidine spiro pyrrolidinone and piperidinone, preparation and therapeutic use thereof” (Sanofi, priority 2008, dated 2013).

The target in test [1] is T1, rhesus H3 receptor (Macaca mulatta, UniProt Q865E1). In words: Rhesus H3 [3H]-methylhistamine radioligand binding assay. The settings on record: [3H]-Methylhistamine 2 nM, rhesus H3 membranes, WGA SPA beads, Cheng-Prusoff. Set-up: species or system rhesus monkey (Macacca Mulatta). As to the method: (§1) Rhesus H3 membranes were prepared from the Flp-In T-REx 293 Cell Line (Invitrogen) stably transfected with pcDNA5/FRT/TO (Invitrogen) containing the rhesus monkey (Macacca Mulatta) 445 amino acid H3 receptor. (Genbank #AY231164). Stably transfected cultures were amplified in tissue culture flasks by standard tissue culture methods and induced to express rhesus H3 by exposure to 500 ng/ml tetracycline (Cellgro) for 24 hours. After induction, cells were dissociated from flasks utilizing Cell Stripper (Cellgro). Cells were centrifuged (1K×g, 5 min) and pellet frozen in an ethanol-dry ice bath to disrupt cell membranes. Frozen cell pellet was re-suspended in 5 mM HEPES (pH 7.4, Invitrogen) at 10 ml/1000 cm2 of harvested cells. The cell suspension was drawn through an 18 gauge needle (2-3×) followed by a 23 gauge needle (2-3×) to further disrupt cell membranes. The cell suspension was centrifuged (40K×g, 30 min). Cell membrane pellet was re-suspended in 5 mM HEPES (pH 7.4, Invitrogen) at a final protein concentration of 10 mg/ml. Rhesus H3 membranes were stored under liquid nitrogen prior to use in [3H]-Methylhistamine and GTP S radioligand binding assays.
T1 sequence (Q865E1 1-445): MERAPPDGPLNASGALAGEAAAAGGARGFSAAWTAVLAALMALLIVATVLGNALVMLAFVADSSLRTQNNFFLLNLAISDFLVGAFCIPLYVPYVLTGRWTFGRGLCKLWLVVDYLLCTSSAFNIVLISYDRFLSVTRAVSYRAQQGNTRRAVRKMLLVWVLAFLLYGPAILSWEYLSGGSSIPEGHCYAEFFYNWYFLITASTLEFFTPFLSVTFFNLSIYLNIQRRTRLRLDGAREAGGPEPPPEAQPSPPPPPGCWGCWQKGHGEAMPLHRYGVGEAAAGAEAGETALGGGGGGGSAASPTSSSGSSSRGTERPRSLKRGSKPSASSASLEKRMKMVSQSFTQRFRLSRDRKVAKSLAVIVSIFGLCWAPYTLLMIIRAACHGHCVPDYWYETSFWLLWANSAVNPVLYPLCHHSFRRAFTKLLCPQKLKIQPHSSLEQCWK
Rhesus H3 radioligand binding assay was performed using rhesus H3 receptor membranes (prepared as described above), [3H]-Methylhistamine (Perkin Elmer) and WGA SPA beads (wheat germ agglutinin scintillation proximity assay) beads (Amersham). The assay was performed in 96-well Opti-Plates (Packard). Each reaction contained 50 μl rhesus H3 membranes (20-30 μg total protein), 50 μl WGA SPA beads (0.1 μg) and 50 μl of 83 Ci/mmol [^3H]-Methylhistamine (final concentration 2 nM) and 50 μl of tested compound. The compounds of this invention and/or vehicle were diluted with binding buffer from 10 mM DMSO stocks. Assay plates were sealed with TopSeal (Perkin Elmer) and mixed on shaker (25° C., 1 hour). Assay plates were read on TopCount scintillation counter (Packard). Results were analyzed by Hill transformation and Ki values were determined by Cheng-Prusoff equation.

The target in test [2] is T1, rhesus H3 receptor. In words: GTPγS radioligand binding assay, inhibition of rhesus H3 constitutive functional activity (inverse agonism). The format is biochemical, rhesus monkey (Macacca Mulatta). Set-up: concentration or dose not given beside the values. The settings on record: rhesus H3 cell membranes, relative to basal levels. The protocol: as §1

With `Cc1cc(N2CCC(N3CCCC3C)C2)ccc1N1CCC2(CCN(C(=O)c3ccc(OC(F)(F)F)cc3)CC2)C1=O` (stereo not drawn) [Example 18, 2-[2-Methyl-4-(2-methyl-[1,3′]bipyrrolidinyl-1′-yl)-phenyl]-8-(4-trifluoromethoxy-benzoyl)-2,8-diaza-spiro[4.5]decan-1-one], the Ki (commonly a measure of affinity in units of concentration, obtained from inhibition or displacement) in test [1] is 6.2 nM. In test [2], the “Inverse Agonism: % inhibition of Basal GTPγS binding in Rhesus H3” value (from here on “Inverse Agonism: % inhibition”) is reported as −10%.

For the molecule `Cc1cc(N2CC[C@H](N3CCC[C@@H]3C)C2)ccc1N1CCCC2(CCN(CC3CCCCC3)CC2)C1=O` [Example 33, 9-Cyclohexylmethyl-2-[2-methyl-4-((2S,3′S)-2-methyl-[1,3′]bipyrrolidinyl-1′-yl)-phenyl]-2,9-diaza-spiro[5.5]undecan-1-one], in test [1], the affinity, expressed as Ki, was 0.2 nM. In addition, the “Inverse Agonism: % inhibition” value in test [2] is recorded as −14%.

In test [1], `C[C@H]1CCCN1[C@H]1CCN(c2ccc(N3CCCC4(CCN(Cc5ccccc5)CC4)C3=O)c(F)c2)C1` [Example 36, 9-Benzyl-2-[2-fluoro-4-((2S,3′S)-2-methyl-[1,3′]bipyrrolidinyl-1′-yl)-phenyl]-2,9-diaza-spiro[5.5]undecan-1-one] returned a Ki of 0.06 nM. In addition, the “Inverse Agonism: % inhibition” value in test [2] is −13%.

`C[C@H]1CCCN1[C@H]1CCN(c2ccc(N3CCCC4(CCN(C5CCOCC5)CC4)C3=O)cc2)C1` [Example 35, 2-[4-((2S,3′S)-2-Methyl-[1,3′]bipyrrolidinyl-1′-yl)-phenyl]-9-(tetrahydro-pyran-4-yl)-2,9-diaza-spiro[5.5]undecan-1-one] displayed a Ki in test [1] of 0.04 nM. Besides, the “Inverse Agonism: % inhibition” value in test [2] was −18%.

In test [1], `Cc1cc(N2CC[C@H](N3CCC[C@H]3C)C2)ccc1N1CCC2(CCN(C(=O)c3ccc(OC(F)(F)F)cc3)CC2)C1=O` [Example 15, 2-[2-Methyl-4-((2R,3′S)-2-methyl-[1,3′]bipyrrolidinyl-1′-yl)-phenyl]-8-(4-trifluoromethoxy-benzoyl)-2,8-diaza-spiro[4.5]decan-1-one] displayed a Ki of 118 nM. For the same molecule, the “Inverse Agonism: % inhibition” value in test [2] is on record as −14%.

The molecule `C[C@H]1CCCCN1[C@H]1CCN(c2ccc(N3CCC4(CCN(S(=O)(=O)c5ccc(F)cc5)CC4)C3=O)cc2)C1` [Example 53, 8-(4-Fluoro-benzenesulfonyl)-2-{4-[3-((2S,3′S)-2-methyl-piperidin-1-yl)-pyrrolidin-1-yl]-phenyl}-2,8-diaza-spiro[4.5]decan-1-one] gave a Ki in test [1] of 1.9 nM. In test [2], the “Inverse Agonism: % inhibition” value is −13%.

For the molecule `C[C@H]1CCCN1C1CCN(c2ccc(N3CCC4(CCNCC4)C3=O)c(F)c2)CC1.Cl` [Example 46, 2-{4-[4-(2S-2-Methyl-pyrrolidin-1-yl)-piperidin-1-yl]-2-fluoro-phenyl}-2,8-diaza-spiro[4.5]decan-1-one Hydrochloride], the affinity in test [1], expressed as Ki, was 0.1 nM. Further, the “Inverse Agonism: % inhibition” value in test [2] is −24%.

In turn, `C[C@H]1CCCN1C1CCN(c2ccc(N3CCC4(CCN(C(=O)OC(C)(C)C)CC4)C3=O)c(C(F)(F)F)c2)CC1` [Example 39, 2-{4-[4-(2S-2-Methyl-pyrrolidin-1-yl)-piperidin-1-yl]-2-trifluoromethyl-phenyl}-1-oxo-2,8-diaza-spiro[4.5]decane-8-carboxylic acid tert-butyl ester] had a Ki in test [1] of 0.9 nM. The “Inverse Agonism: % inhibition” value in test [2] is reported as −22%.

On to `C[C@H]1CCCN1[C@H]1CCN(c2ccc(N3CCC4(CCNCC4)C3=O)c(C(F)(F)F)c2)C1.Cl` [Example 69, 2-[4-((2S,3′S)-2-Methyl-[1,3′]bipyrrolidinyl-1′-yl)-2-trifluoromethyl-phenyl]-2,8-diaza-spiro[4.5]decan-1-one Hydrochloride], for which, in test [1], the affinity, expressed as Ki, was 0.09 nM. Moreover, in test [2], the “Inverse Agonism: % inhibition” value is recorded as −28%.

With `Cc1cc(N2CC[C@H](N3CCC[C@@H]3C)C2)ccc1N1CCC2(CCN(C(=O)c3ccc(OC(F)(F)F)cc3)CC2)C1=O` [Example 19, 2-[2-Methyl-4-((2S,3′S)-2-methyl-[1,3′]bipyrrolidinyl-1′-yl)-phenyl]-8-(4-trifluoromethoxy-benzoyl)-2,8-diaza-spiro[4.5]decan-1-one], the affinity in test [1] corresponds to a Ki of 1.4 nM. For the same molecule, the “Inverse Agonism: % inhibition” value in test [2] is listed as −19%.

As for `Cc1cc(N2CC[C@H](N3CCC[C@@H]3C)C2)ccc1N1CCCC2(CCN(C(=O)OC(C)(C)C)CC2)C1=O` [Example 20, 2-[2-Methyl-4-((2S,3′S)-2-methyl-[1,3′]bipyrrolidinyl-1′-yl)-phenyl]-1-oxo-2,9-diaza-spiro[5.5]undecane-9-carboxylic acid tert-butyl ester], the affinity in test [1], expressed as Ki, was 6.8 nM. Moreover, the “Inverse Agonism: % inhibition” value in test [2] is −18%.

For the molecule `C[C@H]1CCCN1[C@H]1CCN(c2ccc(N3CCCC4(CCN(CC5CC5)CC4)C3=O)cc2)C1` [Example 34, 9-Cyclopropylmethyl-2-[4-((2S,3′S)-2-methyl-[1,3′]bipyrrolidinyl-1′-yl)-phenyl]-2,9-diaza-spiro[5.5]undecan-1-one], the Ki in test [1] worked out at 0.2 nM. Besides, the “Inverse Agonism: % inhibition” value in test [2] is −16%.

Take `C[C@H]1CCCCN1[C@H]1CCN(c2ccc(N3CCC4(CCN(C(=O)OC(C)(C)C)CC4)C3=O)cc2)C1` [Example 41, 2-{4-[3-((2S,3′S)-2-Methyl-piperidin-1-yl)-pyrrolidin-1-yl]-phenyl}-1-oxo-2,8-diaza-spiro[4.5]decane-8-carboxylic acid tert-butyl ester]: in test [1], the Ki is 5.6 nM. Also, the “Inverse Agonism: % inhibition” value in test [2] is −14%.

`C[C@H]1CCCN1[C@H]1CCN(c2ccc(N3CCCC4(CCN(C(=O)c5ccc(F)cc5)CC4)C3=O)cc2)C1` [Example 29] displayed a Ki in test [1] of 0.4 nM. Also, the “Inverse Agonism: % inhibition” value in test [2] was −17%.

In turn, `Cc1cc(N2CC[C@H](N3CCC[C@@H]3C)C2)ccc1N1CCCC2(CCN(C(C)C)CC2)C1=O` [Example 32, 9-Isopropyl-2-[2-methyl-4-((2S,3′S)-2-methyl-[1,3′]bipyrrolidinyl-1′-yl)-phenyl]-2,9-diaza-spiro[5.5]undecan-1-one] had a Ki in test [1] of 0.4 nM. The “Inverse Agonism: % inhibition” value in test [2] is −14%.

In test [1], `C[C@H]1CCCN1[C@H]1CCN(c2ccc(N3CCCC4(CCN(C(=O)OC(C)(C)C)CC4)C3=O)cc2)C1` [Example 21, 2-[4-((2S,3′S)-2-Methyl-[1,3′]bipyrrolidinyl-1′-yl)-phenyl]-1-oxo-2,9-diaza-spiro[5.5]undecane-9-carboxylic acid tert-butyl ester] registered a Ki of 7.3 nM. The “Inverse Agonism: % inhibition” value in test [2] is listed as −28%.

Take `Cc1cc(N2CC[C@@H](N3CCC[C@@H]3C)C2)ccc1N1CCC2(CCN(C(=O)c3ccc(OC(F)(F)F)cc3)CC2)C1=O` [Example 17, 2-[2-Methyl-4-((2S,3′R)-2-methyl-[1,3′]bipyrrolidinyl-1′-yl)-phenyl]-8-(4-trifluoromethoxy-benzoyl)-2,8-diaza-spiro[4.5]decan-1-one]: the affinity in test [1] corresponds to a Ki of 1.4 nM. For the same molecule, the “Inverse Agonism: % inhibition” value in test [2] is reported as −9%.

In the case of `Cc1cc(N2CC[C@H](N3CCC[C@H]3C)C2)ccc1N1CCC2(CCN(CC3CCCC3)CC2)C1=O` [Example 10, 8-Cyclopentyl methyl-2-[2-methyl-4-((2R,3′S)-2-methyl-[1,3′]bipyrrolidinyl-1′-l)-phenyl]-2,8-diaza-spiro[4.5]decan-1-one], in test [1], the affinity corresponds to a Ki of 12 nM. Also, the “Inverse Agonism: % inhibition” value in test [2] is reported as −26%.
